Assay results as given in patent publication US11096951B2, “Prebiotic composition containing butyryl-fructooligosaccharides” (priority 2018, dated 2021).

Experiments:
[1] = tested on: Bac. Thetaiotaomicron; test: Analysis of bacterial culture supernatant (HPLC organic acids); type: cell-based; details: substance as carbon source
[2] = tested on: Staphylococcus aureus; test: Microbial growth curve (OD600); type: cell-based; details: 1% (w/v)
Description: (§1) All strains were obtained from the official institute of strain distribution or by the food microbiology laboratory of Seoul National University. Eight bifidobacteria strains, four Lactobacillus (lactic acid bacteria) strains, lactis KCTC 2013 (Lactococcus lactis subsp. lactis KCTC 2013), and Streptococcus thermophilus KCTC 3779 were sub-cultured in MRS supplemented with 0.05% (w/v) L-cysteine.HCl (de-Mann-Rogosa-Sharpe broth; Difco, Detroit, USA) at 37° C., twice every 18 hours prior to use. Other strains were sub-cultured in BHIB (brain-heart infusion broth; Difco) under the same culture conditions as above prior to use.
(§2) A basal medium used for the bacterial growth test was sugar-free BHIB (MB Cell, Los Angeles, Calif., USA). […]
(§3) In order to remove glucose or other carbon source present in a culture medium of activated bacteria, cultured bacteria were centrifuged (15,000×g, 5 min), the supernatant was discarded and the precipitated bacteria were washed with PBS (pH 7.4) twice. […] Bacterial proliferation was checked by measuring optical density (OD) of the culture solution, absorbance at 600 nm was measured with a microplate reader (BioRad, Hercules, Calif., USA) and a growth curve was made. Bacterial growth was analyzed by comparing maximum OD600 values at a substance concentration of 1% (w/v). […]

[3] = tested on: B. longum BORI; test: Analysis of bacterial culture supernatant (TLC, HPLC organic acids); type: cell-based, Bifidobacterium longum; details: substance as carbon source
[4] = tested on: E. coli; test: Analysis of bacterial culture supernatant (HPLC organic acids); type: cell-based, Escherichia coli; details: substance as carbon source
[5] = tested on: all bacteria used for tests; test: Microbial growth curve (OD600), all bacteria used for tests; type: cell-based; details: compared to positive control (glucose)
Description: as §1, §2, §3

[6] = Cell viability by MTT analysis; type: cell-based; details: human, Caco-2 cells, percentage of control
Description: MTT analysis was conducted to confirm cytotoxicity derived from B-FOS. 100 μl of Caco-2 cells were seeded at a density of 2,000 cells/well onto a 96-well plate and cultured at 37° C. in a 5% CO2 cell incubator for 48 hours. […] After completion of culture, 20 μl of a 5 mg/mL MTT solution was added to each well, reaction was conducted for 4 hours again and the supernatant was removed. The formed crystal was dissolved in 100 μl of dimethyl sulfoxide (DMSO) and an absorbance at 750 nm was measured using a microplate spectrophotometer. Cell viability was represented as a percentage with respect to the control group with no treatment and a mean of values by repeating the test four times was indicated (FIG. 16).

[7] = tested on: L. casei; test: Analysis of bacterial culture supernatant (HPLC organic acids); type: cell-based, Lactobacillus casei; details: substance as carbon source
[8] = tested on: B. longum RD47; test: as above; type: cell-based, Bifidobacterium longum; details: substance as carbon source
[9] = tested on: Bac. Fragilis; test: as above; type: cell-based; details: substance as carbon source
[10] = tested on: all strains; test: Analysis of bacterial culture supernatant (HPLC organic acids), all strains; type: cell-based; details: medium containing the substance
[11] = tested on: B. bifidum BGN4; test: Analysis of bacterial culture supernatant (HPLC organic acids); type: cell-based, Bifidobacterium bifidum; details: substance as carbon source
[12] = tested on: B. catenulatum; test: as above; type: cell-based, Bifidobacterium catenulatum; details: substance as carbon source
[13] = tested on: Clostridium butyricum; type: cell-based; details: 1% (w/v)
[14] = tested on: E. Faecalis; test: Analysis of bacterial culture supernatant (TLC, HPLC organic acids); type: cell-based, Enterococcus faecalis; details: substance as carbon source
[15] = tested on: Caco-2 cells; test: Change in growth of Caco-2 cells depending on medium composition (trypan blue cell count); details: 4 days
Description: To avoid main use of glucose as an energy source for cell growth in a standard culture medium of Caco-2 cells containing a high concentration of glucose (4.5 g/L), cellular growth was compared in the presence of a high concentration of glucose (4.5 g/L) and pyruvate using a glucose-free DMEM (Dulbecco's modified Eagle's medium; Gibco BRL, Grand Island, N.Y., USA).
10% (w/v) solutions of NaB, FOS and B-FOS in PBS were prepared and filtered through a 0.2 μm membrane filter. NaB, FOS and B-FOS were each prepared at a concentration of 0.005 to 0.06% (w/v) in a DMEM medium containing high concentrations of glucose (4.5 g/L) and pyruvate (Glu+Pyr+) and a DMEM medium not containing the same (Glu−Pyr−), and were then used for the test.
5×10^5 cells were seeded in a dose of 1.5 mL in a 25 cm^2 flask (SPL Life Science, Pocheon, South Korea) and cultured for 3 days in 37° C., 5% CO2 cell incubator until 50% confluence was obtained. Then, the medium was replaced with a medium supplemented with 0.005 to 0.06% (w/v) of NaB, FOS and B-FOS and then cultured under the same conditions for 4 days. The culture supernatant was harvested for testing and adsorbed cells were washed with PBS twice, were treated with trypsin/EDTA, and were isolated from the flask. […] The control group was a medium supplemented with PBS and a mean of values obtained by repeating tests three times is shown.

## CCCC(=O)[O-].[Na+] [NaB, Sodium Butyrate]
[1]
  Acetic acid: + (0.05% (v/v) or less)
  Butyric acid: +++ (no more than 0.25% (v/v))
  Lactic acid: −
[2]; vs negative control
  growth of bacteria: significantly inhibited
[2]; negative control OD600=0.36
  maximum OD600: 0.25
[3]
  Acetic acid: + (0.05% (v/v) or less)
  Butyric acid: +++ (no more than 0.25% (v/v))
  Lactic acid: + (0.05% (v/v) or less)
[4]
  Acetic acid: + (0.05% (v/v) or less)
  Butyric acid: +++ (no more than 0.25% (v/v))
  Lactic acid: −
[5]
  growth / use by bacteria used for tests: could not be grown well
[6]; after 48 hours
  viability at 48 h, 0.1 % (w/v): 81 ± 15%
[6]; after 72 hours
  viability at 72 h, 0.1 % (w/v): 45 ± 6.9%
[7]
  Acetic acid: + (0.05% (v/v) or less)
  Butyric acid: +++ (no more than 0.25% (v/v))
  Lactic acid: + (0.05% (v/v) or less)
[8]
  Acetic acid: + (0.05% (v/v) or less)
  Butyric acid: +++ (no more than 0.25% (v/v))
  Lactic acid: + (0.05% (v/v) or less)
[9]
  Acetic acid: + (0.05% (v/v) or less)
  Butyric acid: +++ (no more than 0.25% (v/v))
  Lactic acid: + (0.05% (v/v) or less)
[10]
  butyric acid in culture solutions (HPLC): detected
[11]
  Acetic acid: + (0.05% (v/v) or less)
  Butyric acid: +++ (no more than 0.25% (v/v))
  Lactic acid: + (0.05% (v/v) or less)
[12]
  Acetic acid: + (0.05% (v/v) or less)
  Butyric acid: +++ (no more than 0.25% (v/v))
  Lactic acid: ++ (0.05% (v/v) − 0.25% (v/v))
[13]; vs negative control
  growth of bacteria: significantly inhibited
[13]; negative control OD600=0.49
  maximum OD600: 0.42
[14]
  Acetic acid: + (0.05% (v/v) or less)
  Butyric acid: +++ (no more than 0.25% (v/v))
  Lactic acid: + (0.05% (v/v) or less)
[15]; Glu+Pyr+ medium, 0.005% (w/v)
  decrease in the number of cells as compared to the control group: about 30%
[15]; Glu+Pyr+ medium, 0.04% (w/v)
  decrease in the number of cells as compared to the control group: ~50%
[15]; Glu+Pyr+ medium, 0.06% (w/v)
  decrease in the number of cells as compared to the control group: ~65%
[15]; Glu−Pyr− medium, 0.005% (w/v)
  number of cells vs control group: increased
[15]; Glu−Pyr− medium, 0.02% (w/v)
  number of cells vs control group: increased
[15]; Glu−Pyr− medium, 0.04% (w/v)
  number of cells vs control group: no significant difference
[15]; Glu−Pyr− medium, 0.06% (w/v)
  decrease in the number of cells as compared to the control group: 35%
